# Results as given in patent US11714094B2, “Composition comprising prostacyclin andor analogues thereof for treatment of acute critically ill patients” (priority 2015, dated 2023).
# Like-named read-outs stand apart in the source and are kept apart here.
# Columns and labels:
# [1] = tested on: endothelial derived biomarkers; experiment: Healthy volunteer study, 2 hours i.v. Ilomedin infusion: plasma endothelial derived biomarkers by ELISA; type: in vivo, human; conditions: 1 ng/kg/min i.v. for 2 hours
# Experimental: Blood samples for endothelial function were collected at the following time-points: Before the infusion (0 h), after 30 min infusion (30 min), immediately after ceasing the infusion (2 h) and 2 hours after the end of iloprost infusion. Endothelial function was evaluated by measuring plasma levels of endothelial derived biomarkers by commercially available ELISA kits. Biomarkers indicating: Endothelial glycocalyx damage (syndecan-1), endothelial cell damage (thrombomodulin) and endothelial cell anticoagulation (protein C) were investigated. Furthermore, we measured plasma concentration of prostacyclin (FIG. 3).
# [2] = Randomized placebo controlled trial of 24 hours i.v. Ilomedin in AMI PCI patients: hemodynamics and bleeding events; type: in vivo, human; conditions: 0.5 ng/kg/min i.v. for 24 hours, during or after infusion
# Experimental: (§1) Ilomedin® (iloprost, prostacyclin analog) infusion at a dose of 0.5 ng/kg/min compared to placebo in 17 patients with acute myocardial infarction (AMI) undergoing percutanuous coronary intervention (PCI) with stent implantation [Holmvang et al 2012]. Patients randomized to 24 hours active (n=9) or placebo (n=8) therapy were evaluated for hemodynamics, bleeding events and for functional whole blood hemostasis (Multiplate, TEG) and endothelial function in blood sampled before iloprost infusion (baseline), during infusion (1 h, 6 h and 24 h) and 24 hours after ceasing iloprost infusion (48 h). Bleeding was evaluated by GUSTO criteria (severe, moderate, mild, none) and hemostasis was evaluated by Multiplate and TEG according to the manufactures recommendations. Endothelial function was evaluated by measuring plasma levels of endothelial derived biomarkers by commercially available ELISA kits. Biomarkers indicating: Endothelial glycocalyx damage (syndecan-1), endothelial cell damage (thrombomodulin), endothelial cell activation (sE-selectin, ICAM-1) and anticoagulation (protein C) were investigated.
# [3] = tested on: functional whole blood hemostasis; experiment: Randomized placebo controlled trial of 24 hours i.v. Ilomedin in AMI PCI patients: Multiplate, TEG; type: in vivo, human; conditions: 0.5 ng/kg/min i.v. for 24 hours, during or after infusion
# Experimental: The inventors conducted a randomized placebo controlled double blind clinical trial investigating safety and efficacy of 24 hours i.v. Ilomedin® (iloprost, prostacyclin analog) infusion at a dose of 0.5 ng/kg/min compared to placebo in 17 patients with acute myocardial infarction (AMI) undergoing percutanuous coronary intervention (PCI) with stent implantation [Holmvang et al 2012]. Patients randomized to 24 hours active (n=9) or placebo (n=8) therapy were evaluated for hemodynamics, bleeding events and for functional whole blood hemostasis (Multiplate, TEG) and endothelial function in blood sampled before iloprost infusion (baseline), during infusion (1 h, 6 h and 24 h) and 24 hours after ceasing iloprost infusion (48 h).
# [4] = tested on: endothelial derived biomarkers; experiment: Randomized placebo controlled trial of 24 hours i.v. Ilomedin in AMI PCI patients: plasma endothelial derived biomarkers by ELISA; type: in vivo, human; conditions: 0.5 ng/kg/min i.v. for 24 hours, baseline to 48 h
# Experimental: as §1
# [5] = Whipple surgery patients
# Experimental: The inventors conducted a randomized placebo controlled double blind clinical trial investigating safety and efficacy of intra- and post-operative i.v. Ilomedin® (iloprost, prostacyclin analog) infusion at a dose of 1 ng/kg/min compared to placebo in 16 patients undergoing whipple surgery at Rigshospitalet, a tertiary level teaching University hospital in Copenhagen, Denmark. The inclusion criteria were adults (age […]) undergoing whipple surgery based on surgical indication due to cancer/dysplasia, familial adenomatous polyposis or inflammation/pancreatitis.
# Data on demography, co-morbidities, surgical time and 28-day mortality were assessed. Hemodynamics were measured continuously (heart rate (HR), systolic, diastolic and mean arterial pressure (SBT, DBT, MAP)) or at baseline, end of surgery and 6 h and 24 h post-operative (systemic vascular resistance (SVR), stroke volume (SV), central venous pressure (CVP)). The volume and number of units of red blood cells (RBC), plasma and platelet concentrates administered were recorded at the end of surgery, 6 h and 24 h post-operative. Bleeding volume was assessed intra-operative and 6 h and 24 h post-operative. The volume of crystalloids and colloids (only albumin was allowed) was, together with urine output, recorded intra-operative and 6 h and 24 h post-operative.
# Blood samples for evaluation of functional whole blood hemostasis (TEG) and endothelial function were collected pre-commencing infusion with study drug (baseline), at the end of surgery (post-op) and 6 h after surgery just before ceasing study drug infusion (6 h). Blood samples for routine biochemistry (hemoglobin, creatinine and lactate) were collected at baseline, post-op and 6 h and 24 h post-operative.
# [6] = tested on: functional whole blood hemostasis; experiment: Randomized placebo controlled trial of i.v. Ilomedin in Whipple surgery patients: TEG; type: in vivo, human
# Experimental: (§2) TEG was performed according to the manufactures recommendations. Endothelial function was evaluated by measuring plasma levels of endothelial derived biomarkers by commercially available ELISA kits. Biomarkers indicating: Endothelial glycocalyx damage (syndecan-1), endothelial cell damage (thrombomodulin) and necrosis (nucleosomes) were investigated.
# [7] = tested on: endothelial derived biomarkers; experiment: Randomized placebo controlled trial of i.v. Ilomedin in Whipple surgery patients: plasma endothelial derived biomarkers by ELISA; type: in vivo, human; conditions: 1 ng/kg/min i.v.
# Experimental: as §2
# [8] = tested on: clot formation and platelet aggregation; experiment: Functional whole blood hemostatic assays (TEG, Multiplate) under low-dose prostacyclin infusion; type: in vivo, human
# Excerpt: However, as for the vasodilatory effect, the antiaggretory effect is highly dose-dependent [Moncada et al 1976; O'Grady et al 1980]. […] The term “thrombelastography” or “TEG” refers to a commercially available viscoelastic whole blood hemostasis assay employing citrated or non-anticoagulated blood. The TEG analyzer uses a small whole blood sample in a rotating cup and a pin suspended in the blood by a torsion wire, which is monitored for motion. To speed up the clot formation, a standardized amount of an activator of coagulation (e.g. kaolin, tissue factor) may be added to the cup just before the pin is placed in the cup. The TEG assay is suitable for determining important parameters in the clotting activity (clot initiation time, clot build up dynamics), clot strength (maximum amplitude (MA)) and clot degradation (fibrinolysis). The TEG system's approach to monitoring patient hemostasis is based on the premise that the end result of the hemostatic process is the clot. The clot's physical properties determine whether the patient will have normal hemostasis, or will be at increased risk for hemorrhage or thrombosis. The term “Multiplate” refers to a commercially available impedance aggregometry based whole blood platelet function analyzer employing anti-coagulated blood. The Multiplate analyzer uses a small whole blood sample in a chamber with two pairs of platinum electrodes. Standardized platelet agonists are added to the blood in the chamber to investigate specific platelet activation/signaling pathways. The Multiplate assay is based on the attachment of platelets on two platinum electrodes, resulting in an increase of electrical resistance between the electrodes.
# [9] = Healthy volunteer study, 2 hours i.v. Flolan infusion: hemodynamics; type: in vivo, human; conditions: eight healthy male volunteers; 4 ng/kg/min i.v. for 2 hours; any time point
# Experimental: The study was conducted investigating the influence of 2 hours i.v. Flolan® (epoprostenol sodium, prostacyclin analog) infusion at a dose of 4 ng/kg/min in eight healthy male volunteers.
# whole blood hemostasis = experiment: Healthy volunteer study, 2 hours i.v. Flolan infusion: Multiplate and TEG; type: in vivo, human; conditions: eight healthy male volunteers; 4 ng/kg/min i.v. for 2 hours
# Excerpt: The term “thrombelastography” or “TEG” refers to a commercially available viscoelastic whole blood hemostasis assay employing citrated or non-anticoagulated blood. The TEG analyzer uses a small whole blood sample in a rotating cup and a pin suspended in the blood by a torsion wire, which is monitored for motion. To speed up the clot formation, a standardized amount of an activator of coagulation (e.g. kaolin, tissue factor) may be added to the cup just before the pin is placed in the cup. The TEG assay is suitable for determining important parameters in the clotting activity (clot initiation time, clot build up dynamics), clot strength (maximum amplitude (MA)) and clot degradation (fibrinolysis). The TEG system's approach to monitoring patient hemostasis is based on the premise that the end result of the hemostatic process is the clot. The clot's physical properties determine whether the patient will have normal hemostasis, or will be at increased risk for hemorrhage or thrombosis. The term “Multiplate” refers to a commercially available impedance aggregometry based whole blood platelet function analyzer employing anti-coagulated blood. The Multiplate analyzer uses a small whole blood sample in a chamber with two pairs of platinum electrodes. Standardized platelet agonists are added to the blood in the chamber to investigate specific platelet activation/signaling pathways. […]
# [10] = tested on: endothelial derived biomarkers; experiment: Healthy volunteer study, 2 hours i.v. Flolan infusion: plasma endothelial derived biomarkers by ELISA; type: in vivo, human; conditions: healthy volunteers, 4 ng/kg/min i.v. for 2 hours
# Experimental: The study was conducted investigating the influence of 2 hours i.v. Flolan® (epoprostenol sodium, prostacyclin analog) infusion at a dose of 4 ng/kg/min in eight healthy male volunteers. Endothelial function was evaluated in the study e.g. by measuring plasma levels of endothelial derived biomarkers by commercially available ELISA kits. Biomarkers indicating: Endothelial glycocalyx damage (syndecan-1), endothelial cell damage (thrombomodulin) or necrosis (nucleosomes, HMGB1), endothelial cell activation (PAI-1) and endothelial cell anticoagulation (protein C, antithrombin) were investigated (FIG. 2).
# [11] = Retrospective study of critically ill ICU patients on CRRT with pre-filter Flolan or heparin; type: in vivo, human; conditions: for 90-day mortality / 365-day mortality / platelet count during CRRT: agent given in the dialysis filter; for 30-day mortality: agent given in the dialysis filter (Flolan 5 ng/kg/min)
# Experimental: The inventors conducted a retrospective study of critically ill patients treated or not treated with prostacyclin infusion during their intensive care unit (ICU) stay [Windelov et al 2010]. Ninety-four critically ill patients admitted to the ICU for medical or surgical complications, underwent hemofiltration (continuous renal replacement therapy, CRRT) with or without concomitant Flolan® (epoprostenol sodium, prostacyclin analog) treatment. Flolan® was administered at a low dose (5 ng/kg/min) in the filters to prevent these from clotting and consequently, there was only a minor spill-over of Flolan® to the systemic circulation.
# [12] = cited from earlier work
# [13] = healthy volunteers, during infusion
# [14] = healthy volunteers, 1-4 ng/kg/min infusion
molecule,measurement,setting,value
CC#CCC(C)[C@H](O)/C=C/[C@@H]1[C@H]2C/C(=C/CCCC(=O)O)C[C@H]2C[C@H]1O (stereo partly drawn) [iloprost],circulating level of thrombomodulin,"[1]; eight healthy male volunteers, continuing several hours after infusion",marked decrease
same,circulating level of Syndecan-1,[1]; [13],decreased
same,circulating level of protein C,[1]; [13],decreased
same,bleeding events vs placebo,[2],no differences
same,hemodynamics vs placebo,[2],no differences
same,Multiplate or TEG vs placebo,[3],no differences
same,sE-selectin,[4],decreased significantly
same,intra- and post-operative RBC received (median),[5]; 1 ng/kg/min i.v.,0 mL
same,lactate post-operatively,[5]; 1 ng/kg/min i.v.,remained unchanged
same,post-operative hemoglobin (median),[5]; 1 ng/kg/min i.v.,6.7 mmol/L
same,volume of RBC from arrival at the post-operative ward and 6 h post-operatively,[5]; 1 ng/kg/min i.v.,0 mL
same,28-day mortality vs placebo,[5]; 1 ng/kg/min i.v. intra- and post-operative,no differences
same,TEG maximum clot firmness intra-operatively,"[6]; Whipple surgery patients, 1 ng/kg/min i.v.",remained stable
same,"nucleosome level, change intra- and postoperatively vs placebo",[7],increased significantly more intra- and postoperatively in placebo patients compared to iloprost patients
same,syndecan-1 level vs placebo,[7],trend towards higher levels of syndecan-1 in placebo patients compared to iloprost patients
same,"thrombomodulin level, change intra- and postoperatively vs placebo",[7],increased significantly more intra- and postoperatively in placebo patients compared to iloprost patients
CCCCC[C@H](O)/C=C/[C@@H]1[C@H]2C/C(=C/CCCC(=O)O)O[C@H]2C[C@H]1O [prostacyclin],clot formation and platelet aggregation,"[8]; acute critically ill patients (major abdominal surgery, PCI after AMI), 0.5-1 ng/kg/min infusion",neither influenced clot formation nor platelet aggregation
same,"hemostasis, bleeding or adverse events related to impaired hemostasis","[8]; acute critically ill patients, low-dose infusion 0.5-1 ng/kg/min",does not compromise hemostasis or induce bleeding or adverse events related to impaired hemostasis
same,platelet aggregation,"[8]; general conclusion, dose dependence",dose-dependently inhibits
same,"hemostasis, bleeding or adverse events related to impaired hemostasis","[8]; healthy volunteers and acute critically ill patients, low-dose infusion up to 4 ng/kg/min",does not compromise hemostasis or induce bleeding or adverse events related to impaired hemostasis
same,clot formation and platelet aggregation,[8]; [14],neither influenced clot formation nor platelet aggregation
same,"anti-thrombotic effects (TEG, Multiplate)",[8]; low-dose infusion,no measurable anti-thrombotic effects
same,blood pressure vs baseline,[9],did not change
same,heart rate vs baseline,[9],did not change
same,"Multiplate and TEG values, baseline vs later",whole blood hemostasis,no changes
same,circulating level of PAI-1,[10],declined
same,circulating level of antithrombin,[10],decreased
same,circulating level of thrombomodulin,[10]; continuing several hours after infusion,marked decrease
same,circulating level of protein C,[10]; hours after ceasing infusion,decreased
same,90-day mortality,[11],34%
same,365-day mortality,[11],38%
same,platelet count during CRRT,[11],increased
same,30-day mortality,[11],21%
same,clot formation,"[6]; patients undergoing major abdominal surgery, intra- and post-operative infusion",improved
same,systolic blood pressure,"[12]; acute critically ill patients, doses from 5-10 ng/kg/min",lowers systolic blood pressure dose-dependently
same,blood pressure,[12]; [14],did not influence
same,diastolic blood pressure,"[12]; human volunteers, dose of 8 ng/kg/min",reduced
same,effect on systolic or diastolic blood pressure,"[12]; human volunteers, doses less than 8 ng/kg/min",no significant effect
same,effect on systolic blood pressure,"[12]; human volunteers, doses up to 16 ng/kg/min",no effect
same,hemodynamic effects,"[12]; low-dose infusion up to 4 ng/kg/min, healthy volunteers and acute critically ill patients",negligible
same,blood pressure,"[12]; patients with traumatic brain injury, AMI treated by PCI, septic shock or CABG surgery, 0.5-2 ng/kg/min infusion",did not negatively influence
heparin,90-day mortality,[11],53%
same,365-day mortality,[11],57%
same,platelet count during CRRT,[11],declined
same,30-day mortality,[11],39%
